# System: HeLa cervical carcinoma cell line
# Assay: Cellular cytotoxicity assay (Alamar Blue / Resazurin)
# Assay type: cell-based
# Details: Homo sapiens; HeLa cells, 48 hours incubation; read-out: IC50 (anti-proliferative/cytotoxic potency)
# Description: The anti-proliferative activity of the histone deacetylase inhibitory compounds as described herein, is evaluated with the HeLa cervical carcinoma cell line (ATCC CCL2) using the Alamar Blue (Resazurin) cell viability assay (O'Brien et al. Eur J Biochem 267, 5421-5426, 2000). Resazurin is reduced to the fluorescent resorufin by cellular dehydrogenase activity, correlating with viable, proliferating cells. Test compounds are dissolved as 10 mM solutions in dimethylsulfoxide (DMSO) and subsequently diluted in semi-logarithmic steps. HeLa cells are seeded into 96 well flat bottom plates at a density of 3000 cells per well in a volume of 200 μl per well. 24 hours after seeding 1 μl each of the compound dilutions are added into each well of the 96 Well plate. Each compound dilution is tested as quadruplicates. Wells containing untreated control cells are filled with 200 μl DMEM medium containing 0.5% v:v DMSO. The cells are then incubated with the substances for 48 hours at 37° C. in a humidified atmosphere containing 5% carbon dioxide. To determine the viability of the cells, 20 μl of an Resazurin solution (Sigma; 90 mg/l) are added. After 4 hours incubation at 37° C. the fluorescence is measured at an extinction of 544 nm and an emission of 590 nm. For the calculation of the cell viability the emission value from untreated cells is set as 100% viability and the emission rates of treated cells are set in relation to the values of untreated cells. Viabilites are expressed as % values. The corresponding IC50 values of the compounds for cytotoxic activity are determined from the concentration-effect curves by means of non-linear regression.
row,Structure (SMILES),IC50 [nM]
1,"CN1CCN(c2cc(-c3ccc(S(=O)(=O)n4ccc(/C=C/C(=O)NO)c4)cn3)ccn2)CC1 [Compound 103, (E)-N-Hydroxy-3-{1-[2′-(4-methyl-piperazin-1-yl)-[2,4′]bipyridinyl-5-sulfonyl]-1H-pyrrol-3-yl}-acrylamide]",14 to 6700
2,"Cn1cc(-c2ccc(S(=O)(=O)n3ccc(/C=C/C(=O)Nc4ccccc4N)c3)s2)cn1 [Compound 104, (E)-N-(2-Amino-phenyl)-3-{1-[5-(1-methyl-1H-pyrazol-4-yl)-thiophene-2-sulfonyl]-1H-pyrrol-3-yl}-acrylamide]",14 to 6700
3,"CN(C)Cc1ccc(-c2ccc(S(=O)(=O)n3ccc(/C=C/C(=O)NO)c3)cn2)cc1 [Compound 105, (E)-3-{1-[6-(4-Dimethylaminomethyl-phenyl)-pyridine-3-sulfonyl]-1H-pyrrol-4-yl}-N-hydroxy-acrylamide]",14 to 6700
4,"CN1CCN(c2cc(-c3ccc(S(=O)(=O)n4ccc(/C=C/C(=O)Nc5ccccc5N)c4)s3)ccn2)CC1 [Compound 106, (E)-N-(2-Amino-phenyl)-3-(1-{5-[2-(4-methyl-piperazin-1-yl)-pyridin-4-yl]-thiophene-2-sulfonyl}-1H-pyrrol-3-yl)-acrylamide]",14 to 6700
5,"Nc1ccccc1NC(=O)/C=C/c1ccn(S(=O)(=O)c2ccc(-c3ccc(OCCN4CCCC4)cc3)cc2)c1 [Compound 108, (E)-N-(2-Amino-phenyl)-3-{1-[4′-(2-pyrrolidin-1-yl-ethoxy)-biphenyl 4-sulfonyl]-1H-pyrrol-3-yl}-acrylamide]",14 to 6700

# System: histone H3 acetylation (lysine 9+14) in HeLa cervical carcinoma cells
# Assay: Cellular histone H3 acetylation assay
# Assay type: cell-based
# Details: Homo sapiens, 24 h incubation with compound, read-out: EC50 (histone H3 acetylating cellular potency)
# Text: To assess the cellular efficacy of an histone deactylase inhibitor in vitro, an assay is set up in black clear-bottom 96-well plates and optimized for use on the Cellomics “ArrayScan II” platform for a quantitative calculation of histone acetylation. The protocol uses a polyclonal rabbit antibody, specifically binding to acetylated lysine 9+14 of human histone H3 on fixed cells with an Alexa Fluor 488 labeled goat ant rabbit-IgG used for counterstaining (modified from Braunger et al. MCR annual conference 2003, Abstract 4556).
# 5×10^3 HeLa cervical carcinoma cells/well (ATCC CCL-2) in 200 μl Dulbecco's modified Eagle's medium (DMEM) containing 10% fetal calf serum are seeded at day 1 in Packard view plates and incubated for 24 h under standard cell culture conditions. On day 2, 2 μl test compound (100× final concentration) is added and incubation continued for further 24 h. On day 3, the culture medium is discarded and attached cells fixed for 15 min at room temperature by addition of 100 μl fixation buffer (3.7% v:v formaldehyde in phosphate buffered saline/PBS). After discarding the fixation buffer and one wash with PBS, cells are permeabilized at room temperature by addition of 100 μl/well permeabilization buffer (30.8 mM NaCl, 0.54 mM Na2HPO4, 0.31 mM KH2PO4, 5% v:v Triton X-100) for 15 min at room temperature. After discarding the permeabilization buffer and washing twice with 100 μl/well blocking solution (PBS with 0.05% v:v Tween 20 and 5% w:v milk powder) at room temperature, the 1st antibody (anti-K9+14 histone H3 antibody, Calbiochem No. 382158) in blocking solution (50 μl/well) is added. After incubation for 1 h at 37° C., the wells are washed twice at room temperature with 100 μl/well blocking solution before addition of the 2nd antibody (goat-anti-rabbit Alexa Fluor 488; MoBiTec No. A-11008) in blocking solution (50 μl/well). After further incubation for 1 h at 37° C., wells are washed twice with 100 μl/well blocking solution room temperature. Finally, 100 d/well PBS are added and image analysis performed on the Cellomics “ArrayScan II” platform. For calculation of EC50 values, the nuclear fluorescence in cells treated with and without a reference HDAC inhibitor (eg NVP-LBH-589) are taken as a positive and negative control. For EC50 determination, the percentage of positive cells is determined and EC50 calculation done from concentration-effect curves by means of non-linear regression.
row,EC50 [nM],Structure (SMILES)
1,27 to 4400,"O=C(/C=C/c1ccn(S(=O)(=O)c2ccc(-c3ccc(CCN4CCOCC4)cc3)cc2)c1)NO [Compound 8, (E)-N-Hydroxy-3-{1-[4′-(2-morpholin-4-yl-ethyl)-biphenyl-4-sulfonyl]-1H-pyrrol-3-yl}-acrylamide]"
2,27 to 4400,"O=C(/C=C/c1ccn(S(=O)(=O)c2ccc(-c3cccc(CCN4CCOCC4)c3)cc2)c1)NO [Compound 9, (E)-N-Hydroxy-3-{1-[3′-(2-morpholin-4-yl-ethyl)-biphenyl-4-sulfonyl]-1H-pyrrol-3-yl}-acrylamide]"
3,27 to 4400,"Nc1ccc(-c2cccc(S(=O)(=O)n3ccc(/C=C/C(=O)NO)c3)c2)cn1 [Compound 10, (E)-3-{1-[3-(6-Amino-pyridin-3-yl)-benzenesulfonyl]-1H-pyrrol-3-yl}-N-hydroxy-acrylamide]"
4,27 to 4400,"Cn1cc(-c2cccc(S(=O)(=O)n3ccc(/C=C/C(=O)NO)c3)c2)cn1 [Compound 12, (E)-N-Hydroxy-3-(1-[3-(1-methyl-1H-pyrazol-4-yl)-benzenesulfonyl]-1H-pyrrol-3-yl)-acrylamide]"
5,27 to 4400,"O=C(/C=C/c1ccn(S(=O)(=O)c2cc(-c3ccccc3)ccc2CCN2CCOCC2)c1)NO [Compound 16, (E)-N-Hydroxy-3-{1-[4-(2-morpholin-4-yl-ethyl)-biphenyl-3-sulfonyl]-1H-pyrrol-3-yl}-acrylamide]"
6,27 to 4400,"Nc1ccc(-c2cccc(S(=O)(=O)n3ccc(/C=C/C(=O)Nc4ccccc4N)c3)c2)cn1 [Compound 17, (E)-N-(2-Amino-phenyl)-3-{1-[3-(6-amino-pyridin-3-yl)-benzenesulfonyl]-1H-pyrrol-3-yl}-acrylamide]"
7,27 to 4400,"Nc1ccccc1NC(=O)/C=C/c1ccn(S(=O)(=O)c2cccc(-c3cccc(CCN4CCOCC4)c3)c2)c1 [Compound 18, (E)-N-(2-Amino-phenyl)-3-{1-[3′-(2-morpholin-4-yl-ethyl)-biphenyl-3-sulfonyl]-1H-pyrrol-3-yl}-acrylamide]"
8,27 to 4400,"O=C(/C=C/c1ccn(S(=O)(=O)c2cccc(-c3cccc(CCN4CCOCC4)c3)c2)c1)NO [Compound 20, (E)-N-Hydroxy-3-{1-[3′-(2-morpholin-4-yl-ethyl)-biphenyl-3-sulfonyl]-1H-pyrrol-3-yl}-acrylamide]"
9,27 to 4400,"CS(=O)(=O)Nc1ccccc1-c1ccc(S(=O)(=O)n2ccc(/C=C/C(=O)NO)c2)cc1 [Compound 21, (E)-N-Hydroxy-3-[1-(2′-methanesulfonylamino-biphenyl-4-sulfonyl)-1H-pyrrol-3-yl]-acrylamide]"
10,27 to 4400,"CS(=O)(=O)Nc1cccc(-c2ccc(S(=O)(=O)n3ccc(/C=C/C(=O)NO)c3)cc2)c1 [Compound 22, (E)-N-hydroxy-3-[1-(3′-methanesulfonylamino-biphenyl-4-sulfonyl)-1H-pyrrol-3-yl]-acrylamide]"
11,27 to 4400,"CS(=O)(=O)Nc1ccc(-c2ccc(S(=O)(=O)n3ccc(/C=C/C(=O)NO)c3)cc2)cc1 [Compound 23, (E)-N-Hydroxy-3-[1-(4′-methanesulfonylamino-biphenyl-4-sulfonyl)-1H-pyrrol-3-yl]-acrylamide]"
12,27 to 4400,"CN(C)CCNC(=O)c1ccc(-c2ccc(S(=O)(=O)n3ccc(C=CC(=O)NO)c3)cc2)cc1 [Compound 24, 4′-[3-(E)-2-Hydroxycarbamoyl-vinyl)-pyrrole-1-sulfonyl]-biphenyl-4-carboxylic acid (2-dimethylamino-othyl)-amide]"
13,27 to 4400,"CN(C)CCNC(=O)c1cccc(-c2ccc(S(=O)(=O)n3ccc(C=CC(=O)NO)c3)cc2)c1 [Compound 25, 4′-[3-(E)-2-Hydroxycarbamoyl-vinyl)-pyrrole-1-sulfonyl]-biphenyl-3-carboxylic acid (2-dimethylamino-ethyl)-amide]"
14,27 to 4400,"CN(C)Cc1ccc(-c2ccc(S(=O)(=O)n3ccc(/C=C/C(=O)NO)c3)cc2)cc1 [Compound 26, (E)-3-[1-(4′-Dimethylaminomethyl-biphenyl-4-sulfonyl)-1H-pyrrol-3-yl]-N-hydroxy-acrylamide]"
15,27 to 4400,"CN(C)Cc1ccccc1-c1ccc(S(=O)(=O)n2ccc(/C=C/C(=O)NO)c2)cc1 [Compound 27, (E)-3-[1-(2′-Dimethylaminomethyl-biphenyl-4-sulfonyl)-1H-pyrrol-3-yl]-N-hydroxy-acrylamide]"
16,27 to 4400,"CN1CCN(c2cc(-c3ccc(S(=O)(=O)n4ccc(/C=C/C(=O)NO)c4)cc3)ccn2)CC1 [Compound 28, (E)-N-Hydroxy-3-(1-{4-[2-(4-methyl-piperazin-1-yl)-pyridin-4-yl]-benzenesulfonyl}-1H-pyrrol-3-yl)-acrylamide]"
17,27 to 4400,"CN(C)CCNC(=O)c1ccc(-c2cccc(S(=O)(=O)n3ccc(C=CC(=O)NO)c3)c2)cc1 [Compound 30, 3′-3-((E)-2-Hydroxycarbamoyl-vinyl)-pyrrole-1 sulfonyl]-biphenyl-4-carboxylic acid (2-dimethylamino-ethyl)-amide]"
18,27 to 4400,"O=C(/C=C/c1ccn(S(=O)(=O)c2cccc(-c3cccc(CN4CCOCC4)c3)c2)c1)NO [Compound 31, (E)-N-Hydroxy-3-[1-(3′-morpholin-4-ylmethyl-biphenyl-3-sulfonyl)-1H-pyrrol-3-yl]-acrylamide]"
19,27 to 4400,"CN1CCN(c2cc(-c3cccc(S(=O)(=O)n4ccc(/C=C/C(=O)NO)c4)c3)ccn2)CC1 [Compound 33, (E)-N-Hydroxy-3-(1-{3-[2-(4-methyl-piperazin-1-yl)-pyridin-4-yl]-benzenesulfonyl}-1H-pyrrol-3-yl)-acrylamide]"
20,27 to 4400,"O=C(/C=C/c1ccn(S(=O)(=O)c2cccc(-c3ccc(OCCN4CCOCC4)cc3)c2)c1)NO [Compound 34, (E)-N-Hydroxy-3-{1-[4′-(2-morpholin-4-yl-ethoxy)-biphenyl-3-sulfonyl]-1H-pyrrol-3-yl}-acrylamide]"

# — patent US7666868B2, “N-sulphonylpyrroles and their use as histone deacetylase inhibitors” (4SC AG, priority 2005, dated 2010)
